Results from ChEMBL document CHEMBL1909046, “DrugMatrix in vitro pharmacology data”.

Legend:
[1] = target: Glycine receptor (Rattus norvegicus, UniProt P22771+P24524+P07727+P20781); type: cell membranes, Wistar, Spinal cord, Membrane; further: in other assays of this panel Not Active means under 50% inhibition at 10 µM
[2] = target: T1, C-X-C chemokine receptor type 2 (Homo sapiens, UniProt P25025); type: cell membranes, Membrane; details: cho-k1; further: in other assays of this panel Not Active means under 50% inhibition at 10 µM
T1 sequence (P25025 whole entry): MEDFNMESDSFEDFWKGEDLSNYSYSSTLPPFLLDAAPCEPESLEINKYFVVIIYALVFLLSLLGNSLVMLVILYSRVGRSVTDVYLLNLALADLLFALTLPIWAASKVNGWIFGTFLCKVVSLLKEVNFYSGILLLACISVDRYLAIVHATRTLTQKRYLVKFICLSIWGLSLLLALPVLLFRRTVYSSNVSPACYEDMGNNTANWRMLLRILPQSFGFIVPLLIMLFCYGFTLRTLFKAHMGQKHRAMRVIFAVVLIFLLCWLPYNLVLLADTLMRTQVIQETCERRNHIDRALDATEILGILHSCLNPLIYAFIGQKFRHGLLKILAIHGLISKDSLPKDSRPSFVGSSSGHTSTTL

[3] = target: Melanocortin receptor 3 (Homo sapiens, UniProt P41968); type: cell membranes, Membrane; details: hek293; further: in other assays of this panel Not Active means under 50% inhibition at 10 µM
Melanocortin receptor 3, sequence (P41968 whole entry): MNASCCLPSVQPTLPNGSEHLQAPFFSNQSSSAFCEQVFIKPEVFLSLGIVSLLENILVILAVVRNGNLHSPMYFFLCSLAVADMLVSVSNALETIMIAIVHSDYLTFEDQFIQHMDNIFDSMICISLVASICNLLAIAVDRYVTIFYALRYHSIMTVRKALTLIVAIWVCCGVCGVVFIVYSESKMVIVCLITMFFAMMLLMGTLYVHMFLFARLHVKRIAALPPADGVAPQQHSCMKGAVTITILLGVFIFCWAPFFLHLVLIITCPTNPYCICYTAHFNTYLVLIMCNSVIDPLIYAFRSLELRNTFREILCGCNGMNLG

[4] = DRUGMATRIX: Calcium Channel Type L, Dihydropyridine radioligand binding (ligand: [3H] Nitrendipine); type: cell membranes, Rattus norvegicus, Wistar, Cerebral cortex, Membrane; details: Not Active = under 50% inhibition at 10 µM
[5] = target: T2, Nitric oxide synthase, inducible (Mus musculus, UniProt P29477); set-up: species or system Escherichia coli;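 further: inhibition of iNOS enzyme activity measured with L-arginine as substrate; in other assays of this panel Not Active means under 50% inhibition at 10 µM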
T2 sequence (P29477 whole entry): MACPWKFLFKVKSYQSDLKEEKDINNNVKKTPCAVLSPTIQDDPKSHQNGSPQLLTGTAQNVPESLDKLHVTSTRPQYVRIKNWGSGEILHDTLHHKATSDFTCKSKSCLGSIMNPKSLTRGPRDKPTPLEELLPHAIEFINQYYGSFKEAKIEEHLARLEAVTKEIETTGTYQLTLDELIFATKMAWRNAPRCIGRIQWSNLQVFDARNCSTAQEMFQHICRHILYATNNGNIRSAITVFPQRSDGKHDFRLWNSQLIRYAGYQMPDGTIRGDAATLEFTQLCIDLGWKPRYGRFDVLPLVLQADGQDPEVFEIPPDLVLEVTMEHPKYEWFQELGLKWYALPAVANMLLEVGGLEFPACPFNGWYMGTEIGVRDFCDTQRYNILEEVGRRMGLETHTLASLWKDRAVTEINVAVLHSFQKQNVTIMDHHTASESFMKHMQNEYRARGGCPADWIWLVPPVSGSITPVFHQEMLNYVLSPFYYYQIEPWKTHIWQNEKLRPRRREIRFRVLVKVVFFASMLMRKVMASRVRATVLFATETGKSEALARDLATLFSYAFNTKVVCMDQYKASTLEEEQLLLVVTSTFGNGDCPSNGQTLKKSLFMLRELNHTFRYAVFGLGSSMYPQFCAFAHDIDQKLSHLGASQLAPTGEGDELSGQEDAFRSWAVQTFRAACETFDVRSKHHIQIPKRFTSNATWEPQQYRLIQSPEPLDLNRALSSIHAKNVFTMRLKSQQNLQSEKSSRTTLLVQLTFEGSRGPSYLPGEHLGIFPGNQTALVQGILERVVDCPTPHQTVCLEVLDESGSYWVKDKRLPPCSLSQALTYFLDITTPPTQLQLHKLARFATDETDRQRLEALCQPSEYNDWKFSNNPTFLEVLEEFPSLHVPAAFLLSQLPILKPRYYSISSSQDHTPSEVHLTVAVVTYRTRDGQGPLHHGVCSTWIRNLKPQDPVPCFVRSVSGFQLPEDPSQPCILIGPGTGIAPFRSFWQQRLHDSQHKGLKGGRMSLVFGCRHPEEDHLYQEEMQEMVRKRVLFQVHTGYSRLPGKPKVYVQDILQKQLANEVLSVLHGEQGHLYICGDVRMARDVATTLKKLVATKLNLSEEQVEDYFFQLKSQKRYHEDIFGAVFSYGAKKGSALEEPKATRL

[6] = target: Platelet-activating factor receptor (Homo sapiens, UniProt P25105); type: tissue-based; further: in other assays of this panel Not Active means under 50% inhibition at 10 µM
Platelet-activating factor receptor, sequence (P25105 whole entry): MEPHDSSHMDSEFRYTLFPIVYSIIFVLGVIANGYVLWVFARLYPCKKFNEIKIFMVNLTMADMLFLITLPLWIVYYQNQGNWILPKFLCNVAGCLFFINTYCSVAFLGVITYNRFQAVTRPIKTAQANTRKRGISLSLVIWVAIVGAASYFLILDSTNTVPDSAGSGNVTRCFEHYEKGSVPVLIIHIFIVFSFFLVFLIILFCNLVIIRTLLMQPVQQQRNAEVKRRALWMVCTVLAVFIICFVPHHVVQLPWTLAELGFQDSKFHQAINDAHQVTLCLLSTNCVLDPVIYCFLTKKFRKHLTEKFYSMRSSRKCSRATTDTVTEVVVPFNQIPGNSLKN

[7] = target: T3, Calcitonin receptor (Homo sapiens, UniProt P30988); type: cell membranes, Membrane; details: t47d; further: in other assays of this panel Not Active means under 50% inhibition at 10 µM
T3 sequence (P30988 whole entry): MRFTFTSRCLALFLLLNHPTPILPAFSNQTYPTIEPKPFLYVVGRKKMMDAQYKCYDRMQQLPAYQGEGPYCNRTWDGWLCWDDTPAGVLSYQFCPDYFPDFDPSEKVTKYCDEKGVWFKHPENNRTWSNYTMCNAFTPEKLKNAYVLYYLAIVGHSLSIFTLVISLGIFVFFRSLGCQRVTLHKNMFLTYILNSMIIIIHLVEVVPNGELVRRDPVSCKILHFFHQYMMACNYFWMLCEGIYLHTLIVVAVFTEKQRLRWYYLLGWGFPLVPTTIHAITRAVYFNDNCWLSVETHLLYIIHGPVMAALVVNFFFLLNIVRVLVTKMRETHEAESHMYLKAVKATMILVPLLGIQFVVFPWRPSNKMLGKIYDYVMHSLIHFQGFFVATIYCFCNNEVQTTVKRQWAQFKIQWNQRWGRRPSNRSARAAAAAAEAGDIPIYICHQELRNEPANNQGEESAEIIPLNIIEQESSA

[8] = DRUGMATRIX: Atrial Natriuretic Factor (ANF) radioligand binding (ligand: [125I] ANF (rat)); type: cell membranes, Cavia porcellus, Dunkin-Hartley, Adrenal gland, Membrane; details: Not Active = under 50% inhibition at 10 µM

O=NN(CCCl)C(=O)NCCCl [CARMUSTINE]
Not Active: IC50 [1] | IC50 [2] | IC50 [3] | IC50 [4] | Ki [4] | IC50 [5] | IC50 [6] | IC50 [7] | IC50 [8] | Ki [8]

CC1=C(C(=O)O)N2C(=O)[C@@H](NC(=O)[C@H](N)c3ccccc3)[C@H]2SC1 [CEPHALEXIN ANHYDROUS]
Not Active: IC50 [1] | IC50 [2] | IC50 [3] | IC50 [4] | Ki [4] | IC50 [5] | IC50 [6] | IC50 [7] | IC50 [8] | Ki [8]

O=C(N[C@H](CO)[C@H](O)c1ccc([N+](=O)[O-])cc1)C(Cl)Cl [CHLORAMPHENICOL]
Not Active: IC50 [1] | IC50 [2] | IC50 [3] | IC50 [4] | Ki [4] | IC50 [5] | IC50 [6] | IC50 [7] | IC50 [8] | Ki [8]

ClC(Cl)Cl [CHLOROFORM]
Not Active: IC50 [1] | IC50 [2] | IC50 [3] | IC50 [4] | Ki [4] | IC50 [5] | IC50 [6] | IC50 [7] | IC50 [8] | Ki [8]

C=C1CC[C@H](O)C/C1=C/C=C1\CCC[C@]2(C)[C@@H]([C@H](C)CCCC(C)C)CC[C@@H]12 [CHOLECALCIFEROL]
Not Active: IC50 [1] | IC50 [2] | IC50 [3] | IC50 [4] | Ki [4] | IC50 [5] | IC50 [6] | IC50 [7] | IC50 [8] | Ki [8]

C[N+](C)(C)CCO.[Cl-] [CHOLINE CHLORIDE]
Not Active: IC50 [1] | IC50 [2] | IC50 [3] | IC50 [4] | Ki [4] | IC50 [5] | IC50 [6] | IC50 [7] | IC50 [8] | Ki [8]

CCOC(=O)C(C)(C)Oc1ccc(Cl)cc1 [CLOFIBRATE]
Not Active: IC50 [1] | IC50 [2] | IC50 [3] | IC50 [4] | Ki [4] | IC50 [5] | IC50 [6] | IC50 [7] | IC50 [8] | Ki [8]

CC(=O)OCC(=O)[C@@]1(O)CC[C@H]2[C@@H]3CCC4=CC(=O)CC[C@]4(C)[C@H]3C(=O)C[C@@]21C [CORTISONE ACETATE]
Not Active: IC50 [1] | IC50 [2] | IC50 [3] | IC50 [4] | Ki [4] | IC50 [5] | IC50 [6] | IC50 [7] | IC50 [8] | Ki [8]

O=c1ccc2ccccc2o1 [COUMARIN]
Not Active: IC50 [1] | IC50 [2] | IC50 [3] | IC50 [4] | Ki [4] | IC50 [5] | IC50 [6] | IC50 [7] | IC50 [8] | Ki [8]

C[C@@H]1C[C@@H]([C@H](O)CC2CC(=O)NC(=O)C2)C(=O)[C@@H](C)C1 [CYCLOHEXIMIDE]
Not Active: IC50 [1] | IC50 [2] | IC50 [3] | IC50 [4] | Ki [4] | IC50 [5] | IC50 [6] | IC50 [7] | IC50 [8] | Ki [8]

C/C=C/C[C@@H](C)[C@@H](O)[C@H]1C(=O)N[C@@H](CC)C(=O)N(C)CC(=O)N(C)[C@@H](CC(C)C)C(=O)N[C@@H](C(C)C)C(=O)N(C)[C@@H](CC(C)C)C(=O)N[C@@H](C)C(=O)N[C@H](C)C(=O)N(C)[C@@H](CC(C)C)C(=O)N(C)[C@@H](CC(C)C)C(=O)N(C)[C@@H](C(C)C)C(=O)N1C [CYCLOSPORINE]
Not Active: IC50 [1] | IC50 [2] | IC50 [3] | IC50 [4] | Ki [4] | IC50 [5] | IC50 [6] | IC50 [7] | IC50 [8] | Ki [8]

CN(C)/N=N/c1[nH]cnc1C(N)=O [DACARBAZINE]
Not Active: IC50 [1] | IC50 [2] | IC50 [3] | IC50 [4] | Ki [4] | IC50 [5] | IC50 [6] | IC50 [7] | IC50 [8] | Ki [8]

COc1ccc2c(c1)[C@]13CCCC[C@@H]1[C@H](C2)N(C)CC3 [DEXTROMETHORPHAN]
Not Active: IC50 [1] | IC50 [2] | IC50 [3] | IC50 [4] | Ki [4] | IC50 [5] | IC50 [6] | IC50 [7] | IC50 [8] | Ki [8]

CC(=O)Nc1c(I)c(NC(C)=O)c(I)c(C(=O)O)c1I [DIATRIZOIC ACID]
Not Active: IC50 [1] | IC50 [2] | IC50 [3] | IC50 [4] | Ki [4] | IC50 [5] | IC50 [6] | IC50 [7] | IC50 [8] | Ki [8]

COP(=O)(OC)OC=C(Cl)Cl [DICHLORVOS]
Not Active: IC50 [1] | IC50 [2] | IC50 [3] | IC50 [4] | Ki [4] | IC50 [5] | IC50 [6] | IC50 [7] | IC50 [8] | Ki [8]

O=C(O)Cc1ccccc1Nc1c(Cl)cccc1Cl [DICLOFENAC]
Not Active: IC50 [1] | IC50 [2] | IC50 [3] | IC50 [4] | Ki [4] | IC50 [5] | IC50 [6] | IC50 [7] | IC50 [8] | Ki [8]

C[C@H]1O[C@@H](O[C@H]2[C@@H](O)C[C@H](O[C@H]3[C@@H](O)C[C@H](O[C@H]4CC[C@@]5(C)[C@H](CC[C@@H]6[C@@H]5CC[C@]5(C)[C@@H](C7=CC(=O)OC7)CC[C@]65O)C4)O[C@@H]3C)O[C@@H]2C)C[C@H](O)[C@@H]1O [DIGITOXIN]
Not Active: IC50 [1] | IC50 [2] | IC50 [3] | IC50 [4] | Ki [4] | IC50 [5] | IC50 [6] | IC50 [7] | IC50 [8] | Ki [8]

CCN1CC(CCN2CCOCC2)C(c2ccccc2)(c2ccccc2)C1=O (stereo not given) [DOXAPRAM]
Not Active: IC50 [1] | IC50 [2] | IC50 [3] | IC50 [4] | Ki [4] | IC50 [5] | IC50 [6] | IC50 [7] | IC50 [8] | Ki [8]
